Reference: ChEMBL document CHEMBL5727979, “Thiazolidinedione derivative and use thereof” (2020)

Target: T1, 15-hydroxyprostaglandin dehydrogenase [NAD(+)] (Homo sapiens, UniProt P15428)
T1 sequence (P15428 whole entry): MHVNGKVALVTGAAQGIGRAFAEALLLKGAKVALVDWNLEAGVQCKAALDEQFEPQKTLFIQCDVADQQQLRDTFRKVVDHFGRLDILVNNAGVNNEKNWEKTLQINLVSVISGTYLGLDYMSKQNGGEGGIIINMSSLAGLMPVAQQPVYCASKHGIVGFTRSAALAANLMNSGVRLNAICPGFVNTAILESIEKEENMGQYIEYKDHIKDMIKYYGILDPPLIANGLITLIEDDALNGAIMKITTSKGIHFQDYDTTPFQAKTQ
Assay: Inhibitory Activity Assay: To confirm whether the compounds according to the present disclosure have an effect of inhibiting 15-PGDH, the NADH, which appears at the wavelength of 340 nm, of Compounds 1 to 105 purified in (1) nm was measured by using fluorescence spectra photometer. That is, the cells were treated with a solution including 50 mM Tris-HCl (pH 7.5), 0.1 mM DTT, 0.25 mM (NAD+), 10 μg of purified 15-PGDH enzyme, 21 μM PGE2. and various concentrations (0.0001 μM to 64 μM) of the derivative compound according to the present disclosure. In this case, the total volume of the solution was 2 ml. Then, the absorbance of the reaction mixture was recorded at the wavelength of 340 nm. To measure the activity of the derivative compounds according to the present disclosure, which is an inhibitor of 15-PGDH, the average value of NADH absorbance at 340 nm at various concentrations was obtained from a standard curve. The results of the 15-PGDH inhibitory activity of the derivative compounds according to the present disclosure are shown in Tables 1 and 2 below.

Structure (SMILES)	IC50
O=C(CCC1CCCC1)Oc1ccc(/C=C2\SC(=O)NC2=O)c(Cl)c1	50.8 nM
O=C1NC(=O)/C(=C/c2ccc(OC(=O)C3CCC3)cc2)S1	431 nM
O=C1NC(=O)/C(=C/c2ccc(OC(=O)c3ccccc3)cc2)S1	124 nM
